Structures can show the parent of a compound that is named as a salt.

The values below come from patent publication US7084152B2, “4-phenyl substituted tetrahydroisoquinolines therapeutic use thereof” (AMR Technology, Inc., priority 2000, dated 2006).

Series [1] deals with dopamine transporter protein over the norepinephrine transporter protein. As to conditions: ratio of Ki values; cited from earlier work.

The term melting point denotes the temperature, or range, at which the solid turns liquid. In the case of `CN1Cc2c(ccc3ccoc23)C(c2ccc(F)cc2)C1` (stereo not shown) (as salt: hydrochloride), the melting point lay within 242 to 257 °C.

On to `Cc1ccc(C2CN(C)Cc3c2ccc2ccoc32)cc1` (single isomer, unassigned) (as salt: hydrochloride), for which the melting point is 240 to 246 °C.

`Cc1ccc(C2CN(C)Cc3c2ccc2ccoc32)cc1` (single isomer, unassigned) (as salt: maleate) gave a melting point of 190 to 191 °C.

For `CN1Cc2c(ccc3ccoc23)C(c2cc(F)cc(F)c2)C1` (stereo not shown) (as salt: hydrochloride), the melting point is 233 to 236 °C.

`CN1Cc2c(ccc3ccoc23)C(c2ccccc2)C1` (single isomer, unassigned) showed a melting point of 81 to 83 °C.

Consider `COC(=O)C(c1ccccc1)C1CCCCN1` (stereo not shown) [Methylphenidate, methylphenidate], for which the “DAT/NET Ki ratio” value in series [1] is given as 0.1.

In turn, `CN1Cc2c(ccc3ccoc23)C(c2ccccc2)C1` (single isomer, unassigned) (as salt: maleate) showed a melting point of 165 to 168 °C.
